The values that follow come from US8754047B2, “Peptide compositions and methods of use” (The Research Foundation for the State University of New York, priority 2008, dated 2014).

Assay [1] relates to BxPC-3 human pancreatic cancer cells. Particulars: 24 h. The protocol:
(§1) 10,000 HT29 or SW480 human colon cancer cells, BxPC-3 human pancreatic cancer cells, and MCF7 and MDA-MB-231 breast cancer cells were obtained from American Type Culture Collection (ATTC), Manassas, Va., and were seeded in separate 96-well plates. After treatment with various concentrations (6.25 μM, 12.5 μM, 25 μM, 50 μM, 100 μM, or 200 μM) of test peptide for 24 h, cells were stained with MTT (3-(4,5-Dimethyl-2-thiazolyl)-2,5-diphenyl-2H-tetrazolium bromide, from Sigma-Aldrich) following the instructions of the manufacturer. Before dissolving MTT in SDS, the HT29 and SW480 cells were photographed using a digital camera connected with a phase-contrast microscope. (FIG. 2A1-8, and FIG. 2B1-6). Cells that are alive convert MTT into formazan in their active mitochondria and appear dark purple; dead cells are not stained by MTT and appear colorless.
(§2) The IC50 is the concentration of the test agent that inhibits cell growth by 50% at 24 hours of exposure. IC50s were determined using the MTT assay or using the cell Titer-Glo method and following the instructions of the manufacturer ([…]). […] (Sun, Y., and Rigas, B., (2008), Cancer Res., 68(20): 8269-8277).

In assay [2] the test system is MCF7 breast cancer cells. Particulars: 24 h. How it is done: as §1, §2
Assay [3] relates to MDA-MB-231 breast cancer cells. Particulars: 24 h. The protocol: as §1, §2
In assay [4] the test system is HT29, SW480, BxPC3, MCF7, and MDA-MB-231 cell lines. It is filed as cell-based, human. Particulars: 24 h. The source says: (FIG. 2A1-8, and FIG. 2B1-6).
The test system of assay [5] is peroxiredoxin 1. In words: Oxidized peroxiredoxin 1 (Prx-O3) immunoblot in SW480 cells. Particulars: 1 h, YJB01 20 μM and 100 μM, YJB05 100 μM. Type of assay: cell-based, human. The protocol:
The oxidized peroxiredoxin 1 (sulphonic-peroxiredoxin, Prx-O3) was detected by using the specific anti-Prx-O3 antibody. Briefly, after SW480 cells were treated with either no peptide, with YBJ01 (at 20 μM and 100 μM), or with YJB05 (at 100 μM) for 1 h, total cell lysates were collected and separated on the SDS-PAGE gel. The gel was electroblotted onto a nitrocellulose membrane and probed with anti-Prx-O3, followed by HRP-conjugated secondary antibody. Bands corresponding to sulphonic-peroxiredoxin were visualized by ECL
The oxidized peroxiredoxin 1 (sulphonic-peroxiredoxin, Prx-O3) was detected by using the specific anti-Prx-O3 antibody Briefly, after SW480 cells were treated with either no peptide, with YBJ01 (at 20 μM and 100 μM), or with YBJ05 (at 100 μM) for 1 h, total cell lysates were collected and separated on the SDS-PAGE gel. The gel was electroblotted onto a nitrocellulose membrane and probed with anti-Prx-O3, followed by HRP-conjugated secondary antibody. Bands corresponding to sulphonic-peroxiredoxin were visualized by ECL
Background: In western blotting, separated proteins are transferred to a membrane and probed.

Assay [6] concerns MCF-7 human breast cancer cells. In words: Flow cytometry forward/side scatter, proportion of dead cells, MCF7. Type of assay: cell-based. Particulars: 200 μM, 24 hr. How it is done: (§3) SW480 human colon cancer cells and MCF7 breast cancer cells were grown following the instructions of American Type Culture Collection (ATCC, Monassas, Va.). The cells were treated with the test peptides (YJB01, YJB05, or YJB06) for 24 hrs at concentrations ranging from 0 μM, to 200 μM and subjected to flow cytometric analysis following standard protocols.
(§4) SW480 human colon cancer cells and MCF7 breast cancer cells were grown following the instructions of American Type Culture Collection (ATCC, Monassas, Va.). The cells were treated with the test peptides for 24 hrs at concentrations ranging from 0 μM, to 200 μM and subjected to flow cytometry analysis following standard protocols. […] The circumscribed (gated, outlined) areas in the figure indicate dead cells; dead cells generally have higher density (side scatter) and smaller size (forward scatter) than living cells.
Background: A flow cytometer gives signals particle by particle.

For assay [7], the target named is T1, thioredoxin 1 (Homo sapiens, UniProt P10599).
T1 construct: endogenous in cells; host or cells: SW480 human colon cancer cells
T1 sequence (P10599 1-105): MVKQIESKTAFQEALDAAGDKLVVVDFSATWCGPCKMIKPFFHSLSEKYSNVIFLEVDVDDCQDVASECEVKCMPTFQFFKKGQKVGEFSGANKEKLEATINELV
In words: Thioredoxin 1 redox state, native PAGE immunoblot in SW480 cells. It is filed as cell-based. The note with it: YJB01 20 μM and 100 μM, YJB05 100 μM. The protocol: SW480 human colon cancer cells were grown following the instructions of American Type Culture Collection (ATCC, Monassas, Va.). Cells were treated with either no peptide, with YBJ01 (at 20 μM and 100 μM), or with YBJ05 (at 100 μM). 10^6 cells were lysed in 6 mol/L guanidinium chloride, 50 mmol/L Tris/HCL (pH 8.3), 3 mmol/L EDTA, and 0.5% Triton-X-100 containing 50 mmol/L iodoacetic acid. After 30 min at 37° C., the excess idoacetic acid was removed using Microspin G-25 columns (GE Healthcare Life Sciences). Oxidized and reduced thioredxoin was separated by native PAGE. The gel was electroblotted onto a nitrocellulose membrane and probed with thioredoxin antibodies, followed by HRP-conjugated secondary antibody. Bands corresponding to thioredoxin were visualized by ECL.
SW480 human colon cancer cells were grown following the instructions of American Type Culture Collection (ATCC, Monassas, Va.). Cells were treated with either no peptide, with YBJ01 (at 20 μM and 100 μM), or with YBJ05 (at 100 μM). 10^6 cells from each sample were lysed in 6 mol/L guanidinium chloride, 50 mmol/L Tris/HCL (pH 8.3), 3 mmol/L EDTA, and 0.5% Triton-X-100 containing 50 mmol/L iodoacetic acid. After 30 min at 37° C., the excess idoacetic acid was removed using Microspin G-25 columns (GE Healthcare Life Sciences). Oxidized and reduced thioredxoin was separated by native PAGE. […]

Assay [8] has as its system SW480 human colon cancer cells. In words: Flow cytometry forward/side scatter, proportion of dead cells, SW480. It is filed as cell-based. How it is done: as §3, §4
Assay [9] concerns SW480 human colon cancer cells. In words: Annexin V-FITC flow cytometry for apoptotic cells, SW480. Type of assay: cell-based. Particulars: 24 hrs, 0 μM to 200 μM. The protocol:
SW480 human colon cancer cells and MCF7 breast cancer cells were grown following the instructions of American Type Culture Collection (ATCC, Monassas, Va.). The cells were treated with the test peptides (YJB01, YJB05, or YJB06) for 24 hrs at concentrations ranging from 0 μM, to 200 μM. After treatment, cells were trypsinized and stained with Annexin V-FITC (100× dilution) for 15 minutes. Annexin V-FITC fluorescence intensities were analyzed by FACSCaliber (BD Bioscience) following standard protocols. Annexin V (+) cells are apoptotic cells.
When cells undergo apoptosis, the inner membrane phospholipid, phosphotidylserine (PS), flips to the outer membrane and can be recognized by the […]. The green FITC fluorescence can be determined by flow cytometry and thus Annexin V (+) cells are apoptotic cells.
In this study, SW480 human cancer cells and MCF7 breast cancer cells were grown following the instructions of American Type Culture Collection (ATCC, Monassas, Va.). The cells were treated with the test peptides (YJB01, YJB05, or YJB06) for 24 hrs at concentrations ranging from 0 μM, to 200 μM. After treatment cells were trypsinized and stained with Annexin V-FITC (100× dilution) for 15 minutes. Annexin V-FITC fluorescence intensities were analyzed by FACSCaliber (BD Bioscience) following standard protocols.

In general, IC50 refers to the concentration needed to halve the response being measured. Lower therefore signals greater potency in that assay.

“Also recorded” adds a separate entry of the source. Positions of bridges follow the written chain, without caps; N, C: chain ends. Residues, ends and D or L forms follow the SMILES beside them. No end group written: not given here. Bounds are passed on as bounds.

As to `CC[C@H](C)[C@H](NC(=O)[C@H](CCCCN)NC(=O)[C@@H](NC(=O)[C@H](CCC(N)=O)NC(=O)[C@H](CCCNC(=N)N)NC(=O)[C@@H]1CCCN1C(=O)[C@H](CCCNC(=N)N)NC(=O)[C@@H]1CSSC[C@H](NC(=O)[C@@H](N)[C@@H](C)O)C(=O)N2CCC[C@H]2C(=O)N[C@@H](Cc2ccc(O)cc2)C(=O)N1)[C@@H](C)CC)C(=O)N[C@@H](Cc1c[nH]c2ccccc12)C(=O)N[C@@H](Cc1ccccc1)C(=O)N[C@@H](CCC(N)=O)C(=O)N[C@@H](CC(N)=O)C(=O)N[C@@H](CCCNC(=N)N)C(=O)N[C@@H](CCCNC(=N)N)C(=O)N[C@@H](CCSC)C(=O)N[C@@H](CCCCN)C(=O)N[C@@H](Cc1c[nH]c2ccccc12)C(=O)N[C@@H](CCCCN)C(=O)N[C@@H](CCCCN)C(=O)O` [YJB03], the 50% inhibitory concentration (IC50) in [1] came to 153 µM; in [2], 21 µM; in [3], 309 µM.

For “ATWAGPAKPRQIKIWFQNRRMKWKK [YJB05, reference compound]”, the IC50 in [4] was above 2000 µM. Moreover, the “induction of the oxidized form of peroxiredoxin 1” value in [5] is “fails to induce oxidation”. Further, the “dead cells, MCF7” value in assay [6] is 12.52%. Besides, the “induction of the oxidized form of thioredoxin 1” value in assay [7] was “failed to induce oxidation of thioredoxin 1; also recorded: fails to induce oxidation”. For the same molecule, the “dead cells, SW480” value in assay [8] (200 μM, 24 hr) worked out at 21.62%. Besides, in [9], the “apoptosis, Annexin V (+) cells, SW480” value was “ineffective”.

Consider `CC[C@H](C)[C@H](NC(=O)[C@H](CCCCN)NC(=O)[C@@H](NC(=O)[C@H](CCC(N)=O)NC(=O)[C@H](CCCNC(=N)N)NC(=O)[C@@H]1CCCN1C(=O)[C@H](C)NC(=O)[C@@H]1CCCN1C(=O)[C@@H]1CSSC[C@H](NC(=O)[C@@H](N)C(C)C)C(=O)N2CCC[C@H]2C(=O)N[C@@H](C(C)C)C(=O)N1)[C@@H](C)CC)C(=O)N[C@@H](Cc1c[nH]c2ccccc12)C(=O)N[C@@H](Cc1ccccc1)C(=O)N[C@@H](CCC(N)=O)C(=O)N[C@@H](CC(N)=O)C(=O)N[C@@H](CCCNC(=N)N)C(=O)N[C@@H](CCCNC(=N)N)C(=O)N[C@@H](CCSC)C(=O)N[C@@H](CCCCN)C(=O)N[C@@H](Cc1c[nH]c2ccccc12)C(=O)N[C@@H](CCCCN)C(=O)N[C@@H](CCCCN)C(=O)O` [YJB04] (H-VCPVCPAPRQIKIWFQNRRMKWKK-OH; disulfide 2-5; N-terminus and C-terminus assumed), for which the half-inhibitory concentration (IC50) stood at 123 µM in assay [1], 25 µM in assay [2] and 195 µM in [3].

`C[C@H](N)C(=O)N[C@H](C(=O)N[C@@H](Cc1c[nH]c2ccccc12)C(=O)N[C@H]1CSSC[C@@H](C(=O)O)NC(=O)[C@@H]2CCCN2C(=O)CNC1=O)[C@@H](C)O` [YJB06] (H-ATWCGPC-OH; disulfide 4-7 (inferred); N-terminus and C-terminus assumed) had a half-inhibitory concentration (IC50) in assay [4] above 2000 µM. The “cell killing effect, SW480” value in assay [8] (24 hrs, 0 μM to 200 μM) was “failed to kill SW480 colon cancer cells”.
